Data on 56 compounds can be found in US12116343B2, “Inhibitors of APOL1 and methods of using same” (Vertex Pharmaceuticals Incorporated, priority 2020, dated 2024).

Structures are written as SMILES.

Broadly, the IC50 is the point on the concentration scale where inhibition reaches its midpoint.

For this assay, the target named is T1, G1 APOL1 (Homo sapiens, UniProt O14791, I384M/S342G).
T1 construct: expressed in transfected cells
T1 sequence (O14791 28-398 S342G/I384M): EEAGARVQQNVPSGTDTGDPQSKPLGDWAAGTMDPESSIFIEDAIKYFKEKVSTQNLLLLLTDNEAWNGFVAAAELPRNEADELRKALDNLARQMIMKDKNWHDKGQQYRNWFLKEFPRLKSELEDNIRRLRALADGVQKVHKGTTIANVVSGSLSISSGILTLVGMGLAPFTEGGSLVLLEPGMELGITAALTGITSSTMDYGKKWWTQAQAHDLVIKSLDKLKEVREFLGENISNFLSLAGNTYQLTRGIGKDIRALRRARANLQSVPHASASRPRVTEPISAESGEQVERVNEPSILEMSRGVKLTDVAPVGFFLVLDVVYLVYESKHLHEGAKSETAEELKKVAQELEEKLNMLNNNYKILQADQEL
Kind of assay: Acute APOL1 Thallium Assay with inducible stable clones of HEK 293 cells. It is filed as cell-based. Particulars: HEK 293 T-Rex cells expressing G1 APOL1; read-out: Thallium Assay (IC50). An outline of the steps:
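Tetracycline-inducible HEK293 T-Rex clone G1 DC3.25 expressing G1 APOL1, plated at 26000 cells/well in Opti-MEM with tetracycline induction. APOL1 pore activity read on FLIPR as fluorescence increase from Tl+ influx into cells loaded with a Tl+-sensitive AM-ester dye.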

In the case of `NC(=O)[C@@H](CO)NC(=O)[C@H]1C[C@H](c2c(-c3ccc(F)cc3)[nH]c3c(F)cc(F)cc32)C1` [Compound 221], the concentration for half-maximal inhibition (IC50) was below 250 nM.
Next, `C[C@@H](NC(=O)[C@H]1C[C@H](c2c(-c3ccc(F)cc3)[nH]c3c(F)cc(F)cc32)C1)C(N)=O` [Compound 28]: 250 to 1000 nM; `CC[C@@H](CO)NC(=O)[C@H]1C[C@H](c2c(-c3ccc(F)cc3)[nH]c3c(F)cc(F)cc32)C1` [Compound 204]: 250 to 1000 nM.
On to `O=C(NC[C@@H](O)C(F)(F)F)[C@H]1C[C@H](c2c(-c3ccc(F)cc3)[nH]c3c(F)cc(F)cc32)C1` [Compound 177], for which the IC50 lay within 250 to 1000 nM.
On to `CC(C)C(CO)NC(=O)[C@H]1C[C@H](c2c(-c3ccc(F)cc3)[nH]c3c(F)cc(F)cc32)C1` (some centres unmarked) [Compound 29], for which the IC50 was above 1000 nM.
Take `Cc1cnc(NC(=O)[C@H]2C[C@H](c3c(-c4ccc(F)cc4)[nH]c4c(F)cc(F)cc43)C2)o1` [Compound 24]: the IC50 was above 1000 nM.
The result for `C[C@]1(NC(=O)[C@H]2C[C@H](c3c(-c4ccc(F)cc4)[nH]c4c(F)cc(F)cc43)C2)C[C@@H](O)C1` [Compound 211] reads 250 to 1000 nM; that for `CC(CO)N(C)C(=O)[C@H]1C[C@H](c2c(-c3ccc(F)cc3)[nH]c3c(F)cc(F)cc32)C1` (mixture of isomers) [Compound 193], 250 to 1000 nM; that for `Cn1cc(CNC(=O)[C@H]2C[C@H](c3c(-c4ccc(F)cc4)[nH]c4c(F)cc(F)cc43)C2)cn1` [Compound 38], above 1000 nM.
The result for `O=C(N[C@H]1COC[C@@H]1O)[C@H]1C[C@H](c2c(-c3ccc(F)cc3)[nH]c3c(F)cc(F)cc32)C1` [Compound 184] reads 250 to 1000 nM.
As to `O=C(NC[C@H]1CC[C@@H](CO)O1)[C@H]1C[C@H](c2c(-c3ccc(F)cc3)[nH]c3c(F)cc(F)cc32)C1` [Compound 189], the IC50 is above 1000 nM.
The result for `O=C1CCC(NC(=O)[C@H]2C[C@H](c3c(-c4ccc(F)cc4)[nH]c4c(F)cc(F)cc43)C2)C(=O)N1` (some centres unmarked) [Compound 26] reads 250 to 1000 nM.
The result for `O=C(NC(CO)C1CC1)[C@H]1C[C@H](c2c(-c3ccc(F)cc3)[nH]c3c(F)cc(F)cc32)C1` (some centres unmarked) [Compound 199] reads 250 to 1000 nM.
Regarding `CS(=O)(=O)NC(=O)[C@H]1C[C@H](c2c(-c3ccc(F)cc3)[nH]c3c(F)cc(F)cc32)C1` [Compound 213], the IC50 is above 1000 nM.
Next, `CC(CO)(CO)NC(=O)[C@H]1C[C@H](c2c(-c3ccc(F)cc3)[nH]c3c(F)cc(F)cc32)C1` [Compound 186]: below 250 nM.
Next, `O=C(N[C@H]1CNC[C@@H]1O)[C@H]1C[C@H](c2c(-c3ccc(F)cc3)[nH]c3c(F)cc(F)cc32)C1` [Compound 212]: above 1000 nM.
Next, `CC1(NC(=O)[C@H]2C[C@H](c3c(-c4ccc(F)cc4)[nH]c4c(F)cc(F)cc43)C2)CCNC1=O` (mixture of isomers) [Compound 197]: 250 to 1000 nM; `CS(=O)(=O)CCNC(=O)[C@H]1C[C@H](c2c(-c3ccc(F)cc3)[nH]c3c(F)cc(F)cc32)C1` [Compound 40]: 250 to 1000 nM; `O=C(NC1CCOC1)[C@H]1C[C@H](c2c(-c3ccc(F)cc3)[nH]c3c(F)cc(F)cc32)C1` (some centres unmarked) [Compound 15]: above 1000 nM.
For `CN(C(=O)[C@H]1C[C@H](c2c(-c3ccc(F)cc3)[nH]c3c(F)cc(F)cc32)C1)C1COCC1O` (some centres unmarked) [Compound 205], the concentration for half-maximal inhibition (IC50) was above 1000 nM.
Next, `COC[C@@H]1CCN1C(=O)[C@H]1C[C@H](c2c(-c3ccc(F)cc3)[nH]c3c(F)cc(F)cc32)C1` [Compound 222]: 250 to 1000 nM; `O=C(NC[C@H](O)C(F)(F)F)[C@H]1C[C@H](c2c(-c3ccc(F)cc3)[nH]c3c(F)cc(F)cc32)C1` [Compound 176]: 250 to 1000 nM; `CC1(CO)CCN1C(=O)[C@H]1C[C@H](c2c(-c3ccc(F)cc3)[nH]c3c(F)cc(F)cc32)C1` (mixture of isomers) [Compound 218]: 250 to 1000 nM.
On to `C#CC(CO)NC(=O)[C@H]1C[C@H](c2c(-c3ccc(F)cc3)[nH]c3c(F)cc(F)cc32)C1` (some centres unmarked) [Compound 196], for which the IC50 lay within 250 to 1000 nM.
Next, `C[C@H](O)[C@@H](CO)NC(=O)[C@H]1C[C@H](c2c(-c3ccc(F)cc3)[nH]c3c(F)cc(F)cc32)C1` [Compound 16]: below 250 nM.
Next, `O=C([C@H]1C[C@H](c2c(-c3ccc(F)cc3)[nH]c3c(F)cc(F)cc32)C1)N1CCC[C@@H]1CO` [Compound 192]: above 1000 nM.
Next, `O=C(NC1(CO)CC(F)(F)C1)[C@H]1C[C@H](c2c(-c3ccc(F)cc3)[nH]c3c(F)cc(F)cc32)C1` [Compound 202]: 250 to 1000 nM; `O=C(NCCn1cccc1)[C@H]1C[C@H](c2c(-c3ccc(F)cc3)[nH]c3c(F)cc(F)cc32)C1` [Compound 34]: above 1000 nM; `NC(=O)C1CC(c2c(-c3ccc(F)cc3)[nH]c3c(F)cc(F)cc23)C1` (centres unmarked) [Compound 278, 3-[5,7-difluoro-2-(4-fluorophenyl)-1H-indol-3-yl]cyclobutanecarboxamide]: 250 to 1000 nM.
For `C[C@@H](O)CNC(=O)[C@H]1C[C@H](c2c(-c3ccc(F)cc3)[nH]c3c(F)cc(F)cc32)C1` [Compound 175], the IC50 was 250 to 1000 nM.
Next, `O=C(NCc1nnco1)[C@H]1C[C@H](c2c(-c3ccc(F)cc3)[nH]c3c(F)cc(F)cc32)C1` [Compound 171]: 250 to 1000 nM; `COCCNC(=O)[C@H]1C[C@H](c2c(-c3ccc(F)cc3)[nH]c3c(F)cc(F)cc32)C1` [Compound 12]: above 1000 nM.
The result for `O=C([C@H]1C[C@H](c2c(-c3ccc(F)cc3)[nH]c3c(F)cc(F)cc32)C1)N1CCC[C@H]1CO` [Compound 210] reads above 1000 nM.
Next, `Cn1cncc1CNC(=O)[C@H]1C[C@H](c2c(-c3ccc(F)cc3)[nH]c3c(F)cc(F)cc32)C1` [Compound 174]: above 1000 nM; `O=C(N[C@H]1C[C@H](O)C1)[C@H]1C[C@H](c2c(-c3ccc(F)cc3)[nH]c3c(F)cc(F)cc32)C1` [Compound 20]: above 1000 nM; `O=C(N[C@@H]1CCC[C@H]1O)[C@H]1C[C@H](c2c(-c3ccc(F)cc3)[nH]c3c(F)cc(F)cc32)C1` [Compound 182]: above 1000 nM.
Take `Cc1cc(NC(=O)[C@H]2C[C@H](c3c(-c4ccc(F)cc4)[nH]c4c(F)cc(F)cc43)C2)no1` [Compound 17]: the IC50 lay within 250 to 1000 nM.
As for `O=C(NCCn1cnnc1)[C@H]1C[C@H](c2c(-c3ccc(F)cc3)[nH]c3c(F)cc(F)cc32)C1` [Compound 39], the IC50 is above 1000 nM.
Next, `O=C(NCC1(O)CC1)[C@H]1C[C@H](c2c(-c3ccc(F)cc3)[nH]c3c(F)cc(F)cc32)C1` [Compound 183]: 250 to 1000 nM; `CC(C)CC(NC(=O)[C@H]1C[C@H](c2c(-c3ccc(F)cc3)[nH]c3c(F)cc(F)cc32)C1)C(N)=O` (some centres unmarked) [Compound 30]: above 1000 nM; `O=C(NCC1(O)COC1)[C@H]1C[C@H](c2c(-c3ccc(F)cc3)[nH]c3c(F)cc(F)cc32)C1` [Compound 185]: 250 to 1000 nM.
Next, `O=C(N[C@H]1CC[C@H]1O)[C@H]1C[C@H](c2c(-c3ccc(F)cc3)[nH]c3c(F)cc(F)cc32)C1` [Compound 181]: 250 to 1000 nM; `Cc1nnc(CNC(=O)[C@H]2C[C@H](c3c(-c4ccc(F)cc4)[nH]c4c(F)cc(F)cc43)C2)o1` [Compound 172]: 250 to 1000 nM.
The result for `CC(C)(CO)NC(=O)[C@H]1C[C@H](c2c(-c3ccc(F)cc3)[nH]c3c(F)cc(F)cc32)C1` [Compound 31] reads below 250 nM; that for `Cn1ncc(CNC(=O)[C@H]2C[C@H](c3c(-c4ccc(F)cc4)[nH]c4c(F)cc(F)cc43)C2)n1` [Compound 198], 250 to 1000 nM; that for `O=C(NCC(F)(F)F)[C@H]1C[C@H](c2c(-c3ccc(F)cc3)[nH]c3c(F)cc(F)cc32)C1` [Compound 33], 250 to 1000 nM.
Take `Cc1ccn(CCNC(=O)[C@H]2C[C@H](c3c(-c4ccc(F)cc4)[nH]c4c(F)cc(F)cc43)C2)n1` [Compound 35]: the IC50 was above 1000 nM.
The result for `O=C1NCCC1CNC(=O)[C@H]1C[C@H](c2c(-c3ccc(F)cc3)[nH]c3c(F)cc(F)cc32)C1` (some centres unmarked) [Compound 208] reads above 1000 nM; that for `COC1CC1NC(=O)[C@H]1C[C@H](c2c(-c3ccc(F)cc3)[nH]c3c(F)cc(F)cc32)C1` (some centres unmarked) [Compound 18], above 1000 nM.
The result for `COC[C@@H]1CCN1C(=O)[C@H]1C[C@H](c2c(-c3ccc(F)cc3)[nH]c3c(F)cc(F)cc32)C1` [Compound 220] reads above 1000 nM.
The result for `O=C([C@H]1C[C@H](c2c(-c3ccc(F)cc3)[nH]c3c(F)cc(F)cc32)C1)N1CCOC[C@@H]1CO` [Compound 219] reads 250 to 1000 nM; that for `CC(C)(O)C(O)CNC(=O)[C@H]1C[C@H](c2c(-c3ccc(F)cc3)[nH]c3c(F)cc(F)cc32)C1` (some centres unmarked) [Compound 215], above 1000 nM.
As to `O=C(NCC(O)CO)[C@H]1C[C@H](c2c(-c3ccc(F)cc3)[nH]c3c(F)cc(F)cc32)C1` (some centres unmarked) [Compound 14], the IC50 lay within 250 to 1000 nM.
The result for `O=C(N[C@@H]1CCC[C@@H]1O)[C@H]1C[C@H](c2c(-c3ccc(F)cc3)[nH]c3c(F)cc(F)cc32)C1` [Compound 179] reads above 1000 nM.
The result for `O=C1NCCCC1NC(=O)[C@H]1C[C@H](c2c(-c3ccc(F)cc3)[nH]c3c(F)cc(F)cc32)C1` (some centres unmarked) [Compound 23] reads 250 to 1000 nM.
Next, `O=C(N[C@H]1CC[C@@H]1O)[C@H]1C[C@H](c2c(-c3ccc(F)cc3)[nH]c3c(F)cc(F)cc32)C1` [Compound 178]: above 1000 nM.
